Patent US20240058363A1 (Emyria, priority 2020, published 2024)

Columns and labels:
Type in all cases: in vivo, human
patients = assay: Adverse events recorded at each visit in patients on CBD only
Description: (§1) Patients were assessed monthly by the clinical team (doctor and nurse) and a visit schedule protocol was followed for each patient. A full medical history was conducted at the initial visit, including a detailed history of the clinical indication (including duration symptoms), comorbidities mental and cardiac health conditions, previous procedures, medications and therapies tried. Patients were reviewed as per the Schedule of Assessments (FIG. 2). Cannabinoid dose and Adverse events were also recorded at each visit after treatment began and categorised as mild (no product change indicated), moderate (product change indicated), severe (product cessation indicated) or serious (life-threatening/medical emergency).
Adverse events (AE) were recorded at each of the visits. AEs were categorised as either: Mild (required no change in dose or product), Moderate (required change in dose or product), Severe (required cessation of product) or Serious (medical emergency).
All AEs reported during treatment were recorded. Assessments included monitoring of any or all of the following parameters: the participant's clinical symptoms, laboratory, pathological, radiological or surgical history, physical examination findings, and/or or findings from blood/urine tests. The nature, time of onset, duration and severity will be documented, together with the Investigator's opinion of the relationship to the Medicinal cannabis product.
Review of the dose and side effects was conducted by the doctor at 2 weeks; the doctors then advise whether to increase/or decreases doses. Reviews and clinical visits beyond the 2 weeks occurred monthly or more often as required by the patient due to efficacy and side effects.

symptoms of anxiety = assay: DASS-21 anxiety score in patients treated with CBD only (clinical data registry); details: for DASS-21 Anxiety Score, Post 1-month follow-up Mean (Std. dev): mean days of treatment 47 (+/−23)
Excerpt: (§2) Detailed demographic information and validated standardised questionnaires were collected as part of routine care. Written informed consent to treatment was obtained from all patients, as well as additional consent to participate in Emyria's clinical data registry, data from participating patients were anonymised, aggregated, and analysed to establish clinical efficacy.
Clinically validated tools were used to monitor patients for management of symptoms, quality of life, physical/emotional functioning, and concomitant medication usage. […] After they commenced on medicinal cannabis treatment they were initially treated with low doses and monitored for safety and efficacy of treatment before dose escalation is considered.
(§3) A potentially eligible individual who met any of the following criteria will be excluded from participation if the following criteria is met: • 1. Clinically recorded cannabis drug addiction, or cannabis use disorder including individuals with scores 8 or more on the Cannabis Use Disorder Identification Test (CUDIT). • 2. Untreated cardiovascular disease, arrhythmias (other than well controlled atrial fibrillation), or severe heart failure. • 3. History of suicide attempts or suicidal ideation. • 4. History of psychotic episode, schizophrenia or other psychotic disorders.
Patients were assessed monthly by the clinical team (doctor and nurse) and a visit schedule protocol was followed for each patient. A full medical history was conducted at the initial visit, including a detailed history of the clinical indication (including duration symptoms), comorbidities mental and cardiac health conditions, previous procedures, medications and therapies tried. Patients were reviewed as per the Schedule of Assessments (FIG. 2).
(§4) The doctors treating patients prescribed orally-based medicinal cannabis standardised products as per approval under the Therapeutic Goods Administration (TGA) through the Special Access Scheme (SAS) Category B and Authorised Prescriber (AP) scheme. The prescribing doctor will decide which product type including THC/CBD ratio and CBD only, based on TGA guidance documents (ie for pain THC/CBD type is generally prescribed) [see https://www.tga.gov.au/medicinal-cannabis-guidance-documents], but also will factor in patient's circumstances such as driving (then CBD only prescribed).
Doctors reviewed patients after the 14 day (2 week), see the Schedule of Assessments (FIG. 2). Following the 2-week dosing review where a doctor may increase/decrease the dosage or change product type, patients were then seen regularly (generally monthly) as per the Schedule of Assessments (FIG. 2). Patients taking CBD only products were prescribed either oil or capsules.

symptoms of stress = assay: DASS-21 stress score in patients treated with CBD only (clinical data registry); details: for DASS-21 Stress Score, Post 1-month follow-up Mean (Std. dev): mean days of treatment 47 (+/−23)
Excerpt: as §2
(§5) Clinically validated tools were used to monitor patients for management of symptoms, quality of life, physical/emotional functioning, and concomitant medication usage. Patients were asked about their cannabis history and initially pre-screened for any illicit cannabis use before commencing on medicinal cannabis treatment using the Cannabis Use Disorder Identification Test (CUDIT), a urine screen was performed to confirm negative result for cannabis in their urine before they commence treatment. After they commenced on medicinal cannabis treatment they were initially treated with low doses and monitored for safety and efficacy of treatment before dose escalation is considered.
(§6) Patients are excluded from treatment with medicinal cannabis if they: were pregnant or breast-feeding; have untreated heart disease, heart failure or arrhythmia; a history of severe psychiatric disorders; active suicidal ideation; a history of dependence on cannabis; a history of dependence or abuse of psychoactive substances; detectable urinary THC before commencement of medicinal cannabis.
as §3, §1, §4
(§7) Treatment dosing by the prescribing doctor was in accordance with Emyria (Emerald Clinics) experience, well-tolerated with minimal side effects. Doctors reviewed patients after the 14 day (2 week), see the Schedule of Assessments (FIG. 2). Following the 2-week dosing review where a doctor may increase/decrease the dosage or change product type, patients were then seen regularly (generally monthly) as per the Schedule of Assessments (FIG. 2). Patients taking CBD only products were prescribed either oil or capsules. […]

symptoms of depression = assay: DASS-21 depression score in patients treated with CBD only (clinical data registry); details: for DASS-21 Depression Score, Post 1-month follow-up Mean (Std. dev): mean days of treatment 47 (+/−23)
Excerpt: as §2, §5, §6, §3, §1, §4, §7

[1] = among the 36 patients that experienced AEs
[2] = average treatment window of slightly under 13 days
[3] = dosage amounts between 50-200 mg per day
[4] = mean treatment horizon of 22 days
[5] = mean treatment period of 7 days
[6] = patients with subthreshold and clinically significant scores at baseline

## C=C(C)C1CCC(C)=CC1c1c(O)cc(CCCCC)cc1O (stereo not drawn) [cannabidiol, 2-[3-methyl-6-(1-methylethenyl)-2-cyclohexen-1-yl]-5-pentyl-1,3-benzenediol]
patients; 36 out of 190 patients on CBD only
  Patients with any AEs: 19%
patients; [1]
  Share of AEs that were mild (no change in dose or product): 61%
  Share of AEs that were moderate (requiring change in dose or product): 36%
patients; one of the 36 patients with AEs
  Patients with severe AEs (allergic reactions and constipation) resulting in cessation of the product: 2.8%
Symptoms of anxiety; All (n = 146), initial mean 13.7 (8.7), p 0.000
  DASS-21 Anxiety Score, Post 1-month follow-up Mean (Std. dev): 9.1 (6.8)
Symptoms of anxiety; Mod to extreme (n = 100), initial mean 17.7 (7.5), p 0.000
  DASS-21 Anxiety Score, Post 1-month follow-up Mean (Std. dev): 11.0 (7.1)
Symptoms of anxiety; [2]
  Decrease in anxiety score: −6.0
Symptoms of anxiety; baseline category Mild 8-9 (n = 13), initial mean 8.0 (0.0), p 0.291
  DASS-21 Anxiety Score, Post 1-month follow-up Mean (Std. dev): 7.1 (3.0)
Symptoms of anxiety; baseline category Moderate 10-14 (n = 50), initial mean 12.1 (1.7), p 0.000
  DASS-21 Anxiety Score, Post 1-month follow-up Mean (Std. dev): 8.8 (5.1)
Symptoms of anxiety; baseline category Normal 0-7 (n = 33), initial mean 3.9 (1.7), p 0.667
  DASS-21 Anxiety Score, Post 1-month follow-up Mean (Std. dev): 4.2 (3.7)
Symptoms of anxiety; baseline category Severe 15-19 (n = 16), initial mean 17.0 (1.0), p 0.009
  DASS-21 Anxiety Score, Post 1-month follow-up Mean (Std. dev): 10.9 (7.9)
Symptoms of anxiety; [3]
  Change in anxiety score from initial visit to first follow-up versus dosage (FIG. 6): correlated with a higher value of change indicating less symptoms of anxiety, stress and/or depression
Symptoms of anxiety; [4]
  Fall in anxiety score: −5.7
Symptoms of anxiety; [5]
  Decline in anxiety score: −10.5
Symptoms of anxiety; [6]
  Mean DASS-21 anxiety score over the first six months (FIG. 14): significant reduction over the 6-month period
Symptoms of stress; All (n = 146), initial mean 21.6 (9.5), p 0.000
  DASS-21 Stress Score, Post 1-month follow-up Mean (Std. dev): 16.2 (9.5)
Symptoms of stress; Mod to extreme (n = 79), initial mean 28.8 (6.2), p 0.000
  DASS-21 Stress Score, Post 1-month follow-up Mean (Std. dev): 20.5 (9.4)
Symptoms of stress; [2]
  Decrease in stress score: −9.0
Symptoms of stress; baseline category Extremely Severe 34+ (n = 18), initial mean 38.2 (2.4), p 0.000
  DASS-21 Stress Score, Post 1-month follow-up Mean (Std. dev): 21.7 (12.2)
Symptoms of stress; baseline category Mild 15-18 (n = 27), initial mean 16.9 (1.0), p 0.038
  DASS-21 Stress Score, Post 1-month follow-up Mean (Std. dev): 14.1 (6.5)
Symptoms of stress; baseline category Moderate 19-25 (n = 27), initial mean 22.4 (1.8), p 0.002
  DASS-21 Stress Score, Post 1-month follow-up Mean (Std. dev): 17.2 (7.7)
Symptoms of stress; baseline category Normal 0-14 (n = 40), initial mean 10.6 (3.1), p 0.100
  DASS-21 Stress Score, Post 1-month follow-up Mean (Std. dev): 9.0 (6.0)
Symptoms of stress; baseline category Severe 26-33 (n = 34), initial mean 28.9 (1.9), p 0.000
  DASS-21 Stress Score, Post 1-month follow-up Mean (Std. dev): 22.6 (8.4)
Symptoms of stress; [3]
  Change in stress score from initial visit to first follow-up versus dosage (FIG. 7): correlated with a higher value of change indicating less symptoms of anxiety, stress and/or depression
Symptoms of stress; [4]
  Fall in stress score: −5.8
Symptoms of stress; [5]
  Decline in stress score: −16.0
Symptoms of stress; [6]
  Mean DASS-21 stress score over the first six months (FIG. 16): significant reduction over the 6-month period
Symptoms of depression; All (n = 146), initial mean 17.4 (9.6), p 0.000
  DASS-21 Depression Score, Post 1-month follow-up Mean (Std. dev): 12.8 (10.0)
Symptoms of depression; Mod to extreme (n = 92), initial mean 22.7 (8.0), p 0.000
  DASS-21 Depression Score, Post 1-month follow-up Mean (Std. dev): 16.4 (10.6)
Symptoms of depression; [2]
  Decrease in depression score: −11.2
Symptoms of depression; baseline category Extremely Severe 28+ (n = 28), initial mean 32.9 (5.2), p 0.000
  DASS-21 Depression Score, Post 1-month follow-up Mean (Std. dev): 21.4 (11.6)
Symptoms of depression; baseline category Mild 10-13 (n = 29), initial mean 10.9 (1.0), p 0.000
  DASS-21 Depression Score, Post 1-month follow-up Mean (Std. dev): 7.1 (4.6)
Symptoms of depression; baseline category Moderate 14-20 (n = 49), initial mean 16.4 (2.2), p 0.002
  DASS-21 Depression Score, Post 1-month follow-up Mean (Std. dev): 12.8 (8.1)
Symptoms of depression; baseline category Normal 0-9 (n = 25), initial mean 5.5 (2.3), p 0.543
  DASS-21 Depression Score, Post 1-month follow-up Mean (Std. dev): 6.2 (4.8)
Symptoms of depression; baseline category Severe 21-27 (n = 15), initial mean 24.1 (1.6), p 0.089
  DASS-21 Depression Score, Post 1-month follow-up Mean (Std. dev): 18.8 (11.7)
Symptoms of depression; [3]
  Change in depression score from initial visit to first follow-up versus dosage (FIG. 8): correlated with a higher value of change indicating less symptoms of anxiety, stress and/or depression
Symptoms of depression; [4]
  Fall in depression score: −3.9
Symptoms of depression; [5]
  Decline in depression score: −17.5
Symptoms of depression; [6]
  Mean DASS-21 depression score over the first six months (FIG. 15): significant reduction over the 6-month period
